# Data from patent publication US7105531B2, “Tricyclic protein kinase inhibitors” (WYETH, priority 1999, dated 2006).
# Where a name gives a salt, the structure may show the parent alone.
row,melting point,Compound
1,257 to 259 °C,"N#Cc1cnc2cc3ccccc3cc2c1Nc1ccc(F)c(Cl)c1 [Example 4, 4-(3-Chloro-4-fluoroanilino)benzo[g]quinoline-3-carbonitrile]"
2,195 to 197 °C,"COc1cc(Nc2c(C#N)cnc3cc4ccccc4cc23)c(C)cc1Cl [Example 5, 4-(4-Chloro-5-methoxy-2-methylanilino)benzo[g]quinoline-3-carbonitrile]"
3,240 to 242 °C,"N#Cc1cnc2c(sc3ccccc32)c1Nc1cccc(Br)c1 [Example 65, 4-(3-Bromophenylamino)benzo[4,5]thieno[3,2-b]pyridine-3-carbonitrile]"
4,250 to 251 °C,"N#Cc1cnc2c(sc3ccccc32)c1Nc1ccc(Cl)cc1F [Example 66, 4-(4-Chloro-2-fluorophenylamino)benzo[4,5]thieno[3,2-b]pyridine-3-carbonitrile]"
5,234 to 236 °C,"COc1cc(Nc2c(C#N)cnc3c2sc2ccccc23)c(Cl)cc1Cl [Example 68, 4-(2,4-Dichloro-5-methoxyphenylamino)benzo[4,5]thieno[3,2-b]pyridine-3-carbonitrile]"
6,260 °C (dec.),"Cc1ccc(Nc2c(C#N)cnc3c2sc2ccccc23)cc1O [Example 70, 4-(3-Hydroxy-4-methylphenylamino)benzo[4,5]thieno[3,2-b]pyridine-3-carbonitrile]"
7,174 to 175 °C,"N#Cc1cnc2c(sc3ccccc32)c1Oc1ccc(Cl)cc1F [Example 71, 4-(4-Chloro-2-fluorophenoxy)benzo[4,5]thieno[3,2-b]pyridine-3-carbonitrile]"
8,256 to 258 °C,"N#Cc1cnc2c(sc3c(N)cccc32)c1Nc1cccc(Br)c1 [Example 81, 6-Amino-4-(3-bromoanilino)[1]benzothieno[3,2-b]pyridine-3-carbonitrile]"
9,242 to 245 °C,"N#Cc1cnc2c(oc3ccccc32)c1Nc1cccc(Br)c1 [Example 85, 4-(3-Bromophenylamino)benzo[4,5]furo[3,2-b]pyridine-3-carbonitrile]"
10,259 to 261 °C,"N#Cc1cnc2c(oc3ccccc32)c1Nc1ccc(Cl)cc1F [Example 86, 4-(4-Chloro-2-fluorophenylamino)benzo[4,5]furo[3,2-b]pyridine-3-carbonitrile]"
11,240 °C (dec.),"Cc1ccc(Nc2c(C#N)cnc3c2oc2ccccc23)cc1O [Example 87, 4-(3-Hydroxy-4-methylphenylamino)benzo[4,5]furo[3,2-b]pyridine-3-carbonitrile]"
12,175 to 179 °C,"N#Cc1cnc2c(oc3ccccc32)c1Nc1ccc(Oc2ccccc2)cc1 [Example 88, 4-(4-Phenoxyphenylamino)benzo[4,5]furo[3,2-b]pyridine-3-carbonitrile]"
13,138 to 140 °C,"N#Cc1cnc2c(oc3ccccc32)c1Oc1ccc(Cl)cc1F [Example 89, 4-(4-Chloro-2-fluorophenoxy)-benzo[4,5]furo[3,2-b]pyridine-3-carbonitrile]"
14,210 to 213 °C,"N#Cc1cnc2c(sc3ccc([N+](=O)[O-])cc32)c1Nc1ccc(Cl)cc1Cl [Example 90, 4-(2,4-Dichloroanilino)-8-nitro[1]benzothieno[3,2-b]pyridine-3-carbonitrile]"
15,295 to 300 °C (dec.),"N#Cc1cnc2c(sc3ccc(N)cc32)c1Nc1cccc(Br)c1 [Example 92, 8-Amino-4-(3-bromoanilino)-[1]benzothieno[3,2-b]pyridine-3-carbonitrile]"
16,215 to 217 °C,"COc1ccc2cc3ncc(C#N)c(Nc4ccc(Cl)cc4Cl)c3cc2c1 [Example 103, 4-(2,4-Dichloroanilino)-7-methoxybenzo[g]quinoline-3-carbonitrile]"
17,> 260 °C,"COc1ccc2cc3c(Nc4ccc(Cl)cc4Cl)c(C#N)cnc3cc2c1 [Example 104, 4-(2,4-Dichloroanilino)-8-methoxybenzo[g]quinoline-3-carbonitrile]"
18,> 300 °C,"N#Cc1cnc2cc3ccc(O)cc3cc2c1Nc1ccc(Cl)cc1Cl [Example 105, 4-(2,4-Dichloroanilino)-7-hydroxybenzo[g]quinoline-3-carbonitrile]"
19,267 to 269 °C,"N#Cc1cnc2cc3cc(O)ccc3cc2c1Nc1ccc(Cl)cc1Cl [Example 106, 4-(2,4-Dichloroanilino)-8-hydroxybenzo[g]quinoline-3-carbonitrile]"

# The next lines start with the compound.
row,Compound,melting point
1,COc1cc(Nc2c(C#N)cnc3cc4cc(OC)c(OC)cc4cc23)c(C)cc1Cl,171 to 173 °C
2,COc1cc2cc3ncc(C#N)c(Nc4ccc(Cl)cc4Cl)c3cc2cc1OCCN1CCOCC1,115 to 119 °C (dec.)
3,COc1cc2cc3ncc(C#N)c(Nc4cc(OC)c(OC)c(OC)c4)c3cc2cc1OCCN1CCN(C)CC1,115 to 120 °C (dec.)
4,COc1cc2cc3ncc(C#N)c(Nc4cc(OC)c(OC)c(OC)c4)c3cc2cc1OCCN1CCOCC1,135 to 138 °C (dec.)
5,COc1cc(Nc2c(C#N)cnc3cc4cc(OC)c(OCCN5CCC(O)CC5)cc4cc23)c(Cl)cc1Cl,150 to 160 °C
6,COc1cc(Nc2c(C#N)cnc3cc4cc(OCCN5CCC(O)CC5)c(OC)cc4cc23)c(Cl)cc1Cl,193 to 198 °C
7,COc1cc(Nc2c(C#N)cnc3cc4cc(OCCN5CCC(O)CC5)c(OC)cc4cc23)c(Cl)cc1C,210 to 215 °C
8,COc1cc(Nc2c(C#N)cnc3cc4cc(OCCN5CCOCC5)c(OC)cc4cc23)c(Cl)cc1F,206 to 222 °C
9,COc1cc(Nc2c(C#N)cnc3cc4cc(OC)c(OCCN5CCOCC5)cc4cc23)c(Cl)cc1C,240 to 241 °C
10,"COc1cc2cc3ncc(C#N)c(Nc4ccc(Oc5ccccc5)cc4)c3cc2cc1OC (as salt: salt) [Example 11, 7,8-Dimethoxy-4-(4-phenoxyanilino)benzo[g]quinoline-3-carbonitrile]",> 265 °C
11,"COc1cc2cc3ncc(C#N)c(Nc4ccc(F)c(Cl)c4)c3cc2cc1OC (as salt: salt) [Example 13, 4-(3-Chloro-4-fluoroanilino)-7,8-dimethoxybenzo[g]quinoline-3-carbonitrile]",> 280 °C
12,"COc1cc2cc3ncc(C#N)c(Nc4ccc(Cl)cc4Cl)c3cc2cc1OC [Example 14, 4-(2,4-Dichloroanilino)-7,8-dimethoxybenzo[g]quinoline-3-carbonitrile]",271 to 273 °C
13,"N#Cc1cnc2cc3cc(O)c(O)cc3cc2c1Nc1ccc(Cl)cc1Cl [Example 15, 4-(2,4-Dichloroanilino)-7,8-dihydroxybenzo[g]quinoline-3-carbonitrile]",> 260 °C
14,"COc1ccc(C)c(Nc2c(C#N)cnc3c2C=C2N=C(NCCN4CCOCC4)N=C2C3)c1 [Example 31, 8-(5-Methoxy-2-methylanilino)-2-{[2-(4-morpholinyl)ethyl]amino}imidazo [4,5-g]quinoline-7-carbonitrile]",148 to 150 °C
15,"COc1cc(Nc2c(C#N)cnc3c2C=C2N=C(NCCN4CCOCC4)N=C2C3)cc(OC)c1OC [Example 33, 2-{[2-(4-Morpholinyl)ethyl]amino}-8-(3,4,5-trimethoxyanilino)imidazo[4,5-g]quinoline-7-carbonitrile]",175 to 178 °C
16,"N#Cc1cnc2c(c1Nc1ccc(Oc3ccccc3)cc1)C=C1N=C(N)N=C1C2 [Example 34, 2-Amino-8-(4-phenoxyanilino)imidazo[4,5-g]quinoline-7-carbonitrile]",> 300 °C
17,"N#Cc1cnc2c(c1Nc1cccc(Br)c1)C=C1N=CN=C1C2 [Example 37, 8-(3-Bromo-phenylamino)imidazo[4,5-g]quinoline-7-carbonitrile]",286 to 288 °C
18,"Cc1ccc(Nc2c(C#N)cnc3c2C=C2N=CN=C2C3)cc1O [Example 41, 8-(3-Hydroxy-4-methylphenylamino)imidazo[4,5-g]quinoline-7-carbonitrile]",257 to 260 °C (dec.)
19,"COc1cc(Nc2c(C#N)cnc3c2C=C2N=C(CN4CCOCC4)N=C2C3)cc(OC)c1OC [Example 48, 2-(4-Morpholinylmethyl)-8-(3,4,5-trimethoxyanilino)imidazo[4,5-g]quinoline-7-carbonitrile]",258 to 260 °C (dec.)
20,"N#Cc1cnc2cc3c(cc2c1Nc1ccc(Oc2ccccc2)cc1)ncn3CCN1CCOCC1 [Example 58, 3-[2-(4-Morpholinyl)ethyl]-8-(4-phenoxyanilino)-3H-imidazo[4,5-g]quinoline-7-carbonitrile]",> 260 °C
21,"COc1cc(Nc2c(C#N)cnc3c2sc2ccc(N)cc23)c(C)cc1Cl [Example 76, 8-Amino-4-(4-chloro-5-methoxy-2-methylanilino)[1]benzothieno[3,2-b]pyridine-3-carbonitrile]",266 to 268 °C (dec.)
22,"N#Cc1cnc2c(sc3ccc([N+](=O)[O-])cc32)c1Nc1cccc(Br)c1 [Example 91, 4-(3-Bromoanilino)-8-nitro[1]benzothieno[3,2-b]pyridine-3-carbonitrile]",> 300 °C
23,"C=CC(=O)Nc1ccc2sc3c(Nc4cccc(Br)c4)c(C#N)cnc3c2c1 [Example 93, N-[4-(3-Bromoanilino)-3-cyano[1]benzothieno[3,2-b]pyridin-8-yl]acrylamide]",> 300 °C (dec.)
24,"C=CC(=O)Nc1cccc2c1sc1c(Nc3cccc(Br)c3)c(C#N)cnc12 [Example 94, N-[4-(3-Bromoanilino)-3-cyano[1]benzothieno[3,2-b]pyridin-6-yl]acrylamide]",286 to 287 °C
25,"CN(C)CCOc1ccc2cc3ncc(C#N)c(Nc4ccc(Cl)cc4Cl)c3cc2c1 [Example 107, 4-(2,4-Dichloroanilino)-7-[2-(dimethylamino)ethoxy]benzo[g]quinoline-3-carbonitrile]",115 to 117 °C
26,"COc1cc(Nc2c(C#N)cnc3cc4cc(OCCCl)c(OC)cc4cc23)c(C)cc1Cl [Example 122, 4-(4-chloro-5-methoxy-2-methylanilino)-7-methoxy-8-(chloroethoxy)benzo[g]quinoline-3-carbonitrile]",132 to 168 °C (dec.)
27,"COc1cc(Nc2c(C#N)cnc3cc4cc(OCCCl)c(OC)cc4cc23)c(Cl)cc1Cl [Example 126, 4-(2,4-dichloro-5-methoxyanilino)-7-methoxy-8-(chloroethoxy)benzo[g]quinoline-3-carbonitrile]",239 to 255 °C (dec.)
